# Reference: patent publication US10330673B2, “Fluorescent chemical sensor for biological amines” (The Curators of the University of Missouri, priority 2013, dated 2019)
# Experiments:
# [1] = Fluorescence titration of sensor with glycine; type: binding; settings: amine guest glycine
# [2] = tested on: norepinephrine-enriched chromaffin cells; test: Live-cell confocal imaging with Compound I-2, norepinephrine-enriched cells; type: cell-based, bovine; settings: 0.1 μM
# Description: (§1) Chromaffin cells were separated into norepinephrine-enriched and epinephrine-enriched fractions by centrifugation on a Percoll gradient. Both populations were independently incubated with a 0.1 μM solution of Compound I-2 at 37° C. for 30 minutes and then washed to remove excess sensor and plated.
# (§2) Chromaffin cells were isolated from bovine adrenal glands as previously described. Following centrifugation at 18° C. at 13,000 rpm for 45 minutes in the Percoll gradient, chromaffin cells separate into fractions enriched with either epinephrine-enriched cells (denser band) and norepinephrine-enriched cells (lighter band). Moro, M. A.; Lépez, M. G.; Gandía, L.; Michelena, P.; Garcia, G. Separation and culture of living adrenaline- and noradrenaline-containing cells from bovine adrenal medullae. Anal. Biochem. 1990, 185, 243-248. Over 90% of the catecholamine content found in the cells in the denser fraction are epinephrine, whereas approximately 67% of the catecholamine content in the lighter fraction are norepinephrine. Liu, X.; Barizuddin, S.; Shin, W.; Mathai, C. J.; Gangopadhyay, S.; Gillis, K. D. Microwell device for targeting single cells to electrochemical microelectrodes for high-throughput amperometric detection of quantal exocytosis. Anal. Chem. 2011, 83, 2445-2451. The two cell fractions were collected from the Percoll gradient with careful pipetting and separately cultured. […]
# [3] = tested on: epinephrine-enriched chromaffin cells; test: Live-cell confocal imaging with Compound I-2, epinephrine-enriched cells; type: cell-based, bovine; settings: 0.1 μM
# Description: as §1, §2
# [4] = Fluorescence titration of sensor with dopamine; type: binding; settings: for Ka: pH 5.0, 37° C.
# Description: Fluorescence spectra were recorded on a Shimadzu RF-5301 PC spectrofluorometer at 37° C. A 1 mg/mL stock solution of I-2 in DMSO was prepared. A stock solution of I-2 in buffer (1×10^−5 M, 25 mM HEPES, 50 mM Na2S2O3, pH=5.0) was prepared. Norepinephrine, dopamine, epinephrine, and glutamate stock solutions were prepared by separately dissolving the analytes at the concentration to be used in the titration with the buffered stock solution of I-2 (thus avoiding dilution of I-2 during the experiment). I-2 was titrated with aliquots of analyte solution. The sensor was excited at 488 nm with slit widths of 5 nm.
# Fluorescence spectra were recorded on a Shimadzu RF-5301 PC spectrofluorometer at 37° C. A separate 1 mg/mL stock solution of each coumarin-3-aldehyde derivative in DMSO was prepared. An aqueous stock solution of each derivative (10 μM) in buffer (25 mM HEPES, 50 mM Na2S2O3, pH=5.0) was prepared. Norepinephrine, dopamine, glutamate, and epinephrine stock solutions were prepared by separately dissolving the solid analytes at the concentration to be used in the titration with the buffered stock solutions described above and thus, avoiding dilution of the sensor during the experiment. The benzene-based NS521 derivatives were excited at 488 nm. The thiophene-based derivatives were excited at 515 nm.
# [5] = Fluorescence quantum yield of sensor bound to norepinephrine; type: physicochemical
# [6] = 37° C., 30 minutes, 488 nm excitation (bound sensor)
# [7] = excited at 440 nm (unbound sensor)
# [8] = Table 2, analyte dopamine, benzene-based compounds I, excited at 488 nm
smiles,measurement,setting,value
"CCN(CC)c1ccc2c(-c3ccc(OC)cc3)c(C=O)c(=O)oc2c1 [Compound I-2, 7-diethylamino-3-formyl-4-(4′-methoxyphenyl)coumarin]",Ka,"[1]; fluorescence spectroscopy, λex = 488 nm, λem = 521 nm",8 M⁻¹
same,Isat/Io (λex = 488 nm),[1]; intensity at saturation from fit to binding isotherm,11.1
same,"cell fluorescence, confocal microscopy",[2]; [6],"strong, punctate fluorescence"
same,"cell fluorescence, confocal microscopy",[2]; [7],No significant fluorescence
same,"cell fluorescence, confocal microscopy",[3]; [6],marginal fluorescence
same,"cell fluorescence, confocal microscopy",[3]; [7],No significant fluorescence
same,F.E.,[4]; [8],2.98
same,Ka,[4]; [8],112.10 M⁻¹
same,Ka,"[4]; amine guest dopamine, fluorescence spectroscopy, λex = 488 nm, λem = 521 nm",112 M⁻¹
same,Isat/Io (λex = 488 nm),"[4]; amine guest dopamine, intensity at saturation from fit to binding isotherm",3.0
same,Quantum Yield (Φ),[5],0.0033
